From ChEMBL document CHEMBL4359863, “Structure-guided development of purine amide, hydroxamate, and amidoxime for the inhibition of non-small cell lung cancer” (Eur J Med Chem, 2019)
pIC50: −log10 of the molar value. Values belong to the compound of their own block, whether it stands above or below them. Active and inactive are the calls of the source. No cut-off for these calls is given here.

Legend:
[1] = target: Katanin p60 ATPase-containing subunit A1 (Homo sapiens) (UniProt O75449); experiment: Binding affinity to katanin p60 in human NCI-H1975 cells using biotin labelled compound incubated for 16 hrs by streptavidin based immunoprecipitation method; type: cell-based
[2] = target: T1, Tubulin (Homo sapiens) (UniProt P68371+Q9H4B7+P0DPH7+P68366+Q13509+Q71U36+P04350+Q3ZCM7+P07437+P68363+Q9BQE3+Q6PEY2+Q13885+Q9BVA1+Q9BUF5); experiment: Induction of microtubule fragmentation in human NCI-H1975 cells at 50 nM incubated for 12 hrs by DAPI staining based laser confocal microscopic method; type: cell-based
[3] = target: T1, Tubulin (Homo sapiens); experiment: Induction of microtubule fragmentation in human NCI-H1975 cells at 30 nM incubated for 12 hrs by DAPI staining based laser confocal microscopic method; type: cell-based
[4] = test system: NCI-H1975; experiment: Antiproliferative activity against human NCI-H1975 cells incubated for 48 hrs by celltiter-Glo assay; type: functional, cell-based; details: NCI-H1975, 48 h
[5] = target: T1, Tubulin (Homo sapiens); experiment: Induction of microtubule fragmentation in human NCI-H1975 cells at 140 nM incubated for 12 hrs by DAPI staining based laser confocal microscopic method; type: cell-based

Katanin p60 ATPase-containing subunit A1 (Homo sapiens), sequence (O75449 whole entry, the tested form may be a part): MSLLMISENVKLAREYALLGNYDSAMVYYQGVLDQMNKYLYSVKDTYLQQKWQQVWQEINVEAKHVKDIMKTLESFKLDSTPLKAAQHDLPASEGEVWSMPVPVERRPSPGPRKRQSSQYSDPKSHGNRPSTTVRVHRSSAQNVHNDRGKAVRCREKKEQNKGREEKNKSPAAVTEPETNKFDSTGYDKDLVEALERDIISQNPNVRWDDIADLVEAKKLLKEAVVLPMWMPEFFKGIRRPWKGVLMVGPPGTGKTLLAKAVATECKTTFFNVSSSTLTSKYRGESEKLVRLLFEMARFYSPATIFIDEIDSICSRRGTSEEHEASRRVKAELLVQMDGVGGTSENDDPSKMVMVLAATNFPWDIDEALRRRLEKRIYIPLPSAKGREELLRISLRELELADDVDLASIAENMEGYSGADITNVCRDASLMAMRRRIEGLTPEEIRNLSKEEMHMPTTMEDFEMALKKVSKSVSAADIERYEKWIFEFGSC

Compound: CCOc1ccc(-c2nc(C(N)=O)c3[nH]c(=O)n(-c4cccc(C(=O)NCCCCCNC(=O)CCCC[C@@H]5SC[C@@H]6NC(=O)N[C@@H]65)c4)c3n2)cc1
Activity [1]: Active

Compound: CC(C)(C)OC(=O)NCCCCCNC(=O)CCCC[C@@H]1SC[C@@H]2NC(=O)N[C@@H]21
Activity [1]: inactive

Compound: CCOc1ccc(-c2nc(/C(N)=N/O)c3[nH]c(=O)n(-c4cccc(C(=O)NCCCCCNC(=O)CCCC[C@@H]5SC[C@@H]6NC(=O)N[C@@H]65)c4)c3n2)cc1
Activity [1]: Active

Second part, the compound after the results:

Activity [2]: Active
Compound: CCOc1ccc(-c2nc(/C(N)=N/O)c3[nH]c(=O)n(-c4ccccc4OC)c3n2)cc1

Activity [3]: Active
Compound: CCOc1ccc(-c2nc(C(N)=O)c3[nH]c(=O)n(-c4ccccc4OC)c3n2)cc1

pIC50 [4]: 5.12
Compound: COc1ccccc1-n1c(=O)[nH]c2c(C(N)=O)nc(-c3ccc4c(c3)OCO4)nc21

Activity [5]: Active
Compound: CCOc1ccc(-c2nc(C(=O)NO)c3[nH]c(=O)n(-c4ccccc4OC)c3n2)cc1
